Key:
human PPARγ1 = molecular target: T1, human PPARγ1 (Homo sapiens, UniProt P37231); experiment: Human PPARγ1 antagonist assay (luciferase reporter in PPARγ:RXRα:4ERPP/CHO-K1 cells); assay type: cell-based; conditions: test compound 10^−6 M, 10 nM compound A as stimulant, luciferase activity, 24 hrs, read-out: Inhibitory rate (%)
T1 construct: expressed in transfected cells; host or cells: CHO-K1 cells stably transfected with pVgRXR2-hPPARγ and reporter plasmid pGL3-4ERPP-TK neo
T1 sequence (P37231 1-477 isoform P37231-2): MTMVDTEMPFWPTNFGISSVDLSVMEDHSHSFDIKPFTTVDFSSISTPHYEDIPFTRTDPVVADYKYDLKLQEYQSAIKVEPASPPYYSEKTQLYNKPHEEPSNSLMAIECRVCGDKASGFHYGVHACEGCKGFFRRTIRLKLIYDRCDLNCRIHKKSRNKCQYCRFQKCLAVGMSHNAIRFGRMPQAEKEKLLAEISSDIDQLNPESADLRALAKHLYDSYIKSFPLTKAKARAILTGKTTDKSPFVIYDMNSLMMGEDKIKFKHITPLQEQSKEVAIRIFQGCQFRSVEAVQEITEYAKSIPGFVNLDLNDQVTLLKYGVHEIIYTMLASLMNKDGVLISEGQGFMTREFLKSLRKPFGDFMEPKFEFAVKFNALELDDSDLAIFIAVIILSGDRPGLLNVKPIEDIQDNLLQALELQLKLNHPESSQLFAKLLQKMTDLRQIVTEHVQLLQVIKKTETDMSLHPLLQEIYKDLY
T1 sequence (P19793 1-462 partner): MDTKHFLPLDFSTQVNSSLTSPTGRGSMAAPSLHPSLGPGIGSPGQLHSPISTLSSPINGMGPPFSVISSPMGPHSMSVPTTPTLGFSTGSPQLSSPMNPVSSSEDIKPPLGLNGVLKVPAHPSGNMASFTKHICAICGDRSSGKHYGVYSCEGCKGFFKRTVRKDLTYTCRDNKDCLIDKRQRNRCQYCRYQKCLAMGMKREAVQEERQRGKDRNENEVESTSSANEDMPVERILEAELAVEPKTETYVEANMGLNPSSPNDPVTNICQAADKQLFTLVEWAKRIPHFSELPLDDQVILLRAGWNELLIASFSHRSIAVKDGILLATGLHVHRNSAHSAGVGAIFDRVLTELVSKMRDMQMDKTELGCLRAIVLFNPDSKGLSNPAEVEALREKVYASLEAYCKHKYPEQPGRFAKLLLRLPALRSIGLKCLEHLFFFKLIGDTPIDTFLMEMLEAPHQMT
Experimental: PPARγ:RXRα:4ERPP/CHO-K1 cells (obtained in Reference Example 5a) cultured in Ham's F-12 medium (GIBCO, Inc.) supplemented with 10% fetal bovine serum (TRACE SCIENTIFIC, Ltd.) were seeded in a well of a 96 well white plate at 2×10^4 cells/well and cultured under 37° C. 5% CO2 conditions for 24 hrs. After removal of the medium, Ham's F-12 medium (GIBCO) containing 60 μl of 0.1% BSA (not containing fatty acid) (Wako Pure Chemical Industries, Ltd.), 20 μl of 10^−5M or 10^−6 M test compound and 20 μl of compound A having a final concentration of 10 nM as a stimulant were added, and the cells were cultured under 37° C. 5% CO2 conditions for 24 hrs. After removal of the medium, 40 μl of Pickagene LT7.5 (Wako Pure Chemical Industries, Ltd.) 2-fold diluted with HBSS (HANKS' BALANCED SALT SOLUTION) (BIO WHITTAKER Inc.) was added. After stirring, luciferase activity was measured using 1420 ARVO Multilabel Counter (Wallac, Inc.). In addition, a test similar to the above was conducted for the non-use of the aforementioned test compound alone and for the non-use of the aforementioned test compound and compound A to determine the luciferase activity.
The human PPARγ1 antagonistic activity of the test compound was evaluated using percentages (% inhibition) wherein the luciferase activity when 10 nM compound A alone was added was 0%, and the luciferase activity when the test compound and compound A were not added was 100%. The concentration of the test compound was 10^−5 M for the compounds of Example 42 and 315 and 10^−6 M for other test compounds.
After a CHO-K1 cell cultured in a cell culture flask (150 cm^2) (produced by Corning Costar Corporation, USA) containing Ham's F-12 medium (produced by Life Technologies, Inc., USA) supplemented with 10% fetal bovine serum (produced by Life Technologies, Inc., USA) was detached by treating with 0.5 g/L trypsin-0.2 g/L EDTA (ethylenediaminetetraacetic acid) (produced by Life Technologies, Inc., USA), the cell was washed with PBS (phosphate-buffered saline) (produced by Life Technologies, Inc., USA), centrifuged (1000 rpm, 5 minutes), and then suspended in PBS. Subsequently, the DNA was introduced into the cells under the conditions shown below using GENE PULSER (produced by Bio-Rad Laboratories, USA).
Namely, to a cuvette having a 0.4 cm gap, added were 8×10^6 cells and 10 μg of plasmid pVgRXR2-hPPARγ obtained in Reference Example 4a and 10 μg of reporter plasmid pGL3-4ERPP-TK neo obtained in Reference Example 2a, which was subjected to electroporation at the voltage of 0.25 kV under the capacitance of 960 μF. Subsequently, the cell was transferred into a Ham's F-12 medium containing 10% fetal bovine serum and cultured for 24 hours and then the cells were detached again and centrifuged, and then suspended in HAM F12 medium containing 10% fetal bovine serum supplemented with 500 μg/ml of GENETICIN (produced by Life Technologies, Inc., USA) and 250 μg/ml of ZEOCIN (produced by Invitrogen, USA). The obtained suspension was diluted to the density of 10^4 cells/ml and inoculated to a 96-well plate (produced by Corning Costar Corporation, USA), which was cultured in a CO2 gas incubator at 37° C., whereby obtaining a GENETICIN- and ZEOCIN-resistant transformant. Subsequently, after the transformant cell line thus obtained was cultured in a 24-well plate (produced by Corning Costar Corporation, USA), selected was a cell line in which the luciferase was expressed and induced, i.e., PPARγ:RXRα:4ERPP/CHO-K1 cell by the addition of 10 μM pioglitazone hydrochloride.

SMILES | inhibition at 1 µM (human PPARγ1) | melting point
COc1cc(COc2nn(-c3ccccc3)cc2/C=C/c2csc(C(C)(C)C)n2)ccc1OCc1nc(-c2ccc(CC(=O)O)cc2)oc1C [Example 359, {4-[4-({4-[({4-[(E)-2-(2-tert-butyl-1,3-thiazol-4-yl)ethenyl]-1-phenyl-1H-pyrazol-3-yl}oxy)methyl]-2-methoxyphenoxy}methyl)-5-methyl-1,3-oxazol-2-yl]phenyl}acetic acid] | 111% | 
COc1cc(COc2nn(-c3ccccc3)cc2/C=C/c2coc(C(C)(C)C)n2)ccc1OCc1nc(-c2ccc(CC(=O)O)cc2)oc1C [Example 371, {4-[4-({4-[({4-[(E)-2-(2-tert-butyl-1,3-oxazol-4-yl)ethenyl]-1-phenyl-1H-pyrazol-3-yl}oxy)methyl]-2-methoxyphenoxy}methyl)-5-methyl-1,3-oxazol-2-yl]phenyl}acetic acid] | 114% | 
CCc1nc(/C=C/c2cn(-c3ccccc3)nc2OCc2ccc(OCc3nc(-c4cccc(-c5nnn[nH]5)c4)oc3C)c(OC)c2)cs1 [Example 373, 5-{3-[4-({4-[({4-[(E)-2-(2-ethyl-1,3-thiazol-4-yl)ethenyl]-1-phenyl-1H-pyrazol-3-yl}oxy)methyl]-2-methoxyphenoxy}methyl)-5-methyl-1,3-oxazol-2-yl]phenyl}-1H-tetrazole] | 112% | 144 to 147 °C

From patent US7368578B2, “Five-membered heterocyclic compounds” (Takeda Pharmaceutical Company Limited, priority 2002, dated 2008)
